Consider 30 compounds from patent US7105516B2, “Compounds for the treatment of premature ejaculation” (Bristol-Myers Squibb Company, priority 2002, dated 2006).

For assay [1], the target named is T1, human norepinephrine transporters (Homo sapiens, UniProt P23975).
T1 construct: the text also calls them 'HEK-hNET cells'); membrane homogenates
Put plainly: Norepinephrine Transporter Binding Assay ([3H]-nisoxetine displacement, hNET cell membranes). The settings on record: 2.7 nM [3H]-nisoxetine, 1 hr at 4° C., read-out: NE reuptake binding Ki. On the procedure: MDCK cells that stably express human norepinephrine transporters (HEK-hNET cells) were supplied by Receptor Biology, Inc. Pellets were resuspended by homogenization in buffer consisting of 50 mM Tris (pH 7.4 at 25° C.), 120 mM NaCl and 5 mM KCl. Membrane homogenates (200 μl/well, 8 ug protein) were incubated with 2.7 nM [^3H]-nisoxetine (specific activity=80 Ci/mMol) and increasing concentrations of test compounds for 1 hr at 4° C. in a total volume of 250 μl. The assay buffer consisted of 50 mM Tris (pH 7.4 at 25° C.), 120 mM NaCl and 5 mM KCl (pH 7.4 with conc. HCl). Plates were incubated for 1 hr at 4° C., then filtered through 0.5% PEI treated Whatman GF/B filters using a Brandel cell harvester. Filters were washed three times with 3 mL of ice-cold tris wash buffer. Non-specific binding was defined with 10 μM desipramine. Amount of radioligand bound in the presence and absence of competitor was analyzed by plotting (−)log drug concentration versus the amount of radioligand specifically bound. The midpoint of the displacement curve (IC50, nM), signifies the potency. Ki values were calculated using the method of Cheng and Prusoff (1973).

Assay [2] has as its target T2, human serotonin transporters (Homo sapiens, UniProt P31645).
T2 construct: expressed in transfected cells; membrane homogenates
Put plainly: Serotonin Transporter Binding Assay ([3H]-citalopram displacement, HEK-hSERT cell membranes). The following applies: 1 nM [3H]-citalopram, 1 hr at 25° C. On the procedure: HEK-293 cells that stably express human serotonin transporters (HEK-hSERT cells) were grown at 37° C. in 5% CO2 as a monolayer in medium consisting of EMEM supplemented with 10% fetal bovine serum and G418 sulfate (500 μg/mL). […] Cells were transferred from plates to polypropylene tubes (16×100 mm), centrifuged at 1,200×g for 5 min and were frozen at −80° C. until assay. Following centrifugation, pellets were resuspended by homogenization in buffer consisting of 50 mM Tris (pH 7.7 at 25° C.), 120 mM NaCl and 5 mM KCl and then centrifuged at 32,000×g for 10 min. Following centrifugation, supernatants were discarded and pellets were resuspended in buffer consisting of 50 mM Tris (pH 7.4 at 25° C.), 150 mM NaCl and 5 mM KCl. Membrane homogenates (200 μl/plate) were incubated with 1 nM [^3H]-citalopram (specific activity=85 Ci/mMol) and increasing concentrations of test compounds for 1 hr at 25° C. in a total volume of 250 μl. The assay buffer consisted of 50 mM Tris (pH 7.4 at 25° C.), 120 mM NaCl and 5 mM KCl (pH 7.4 with conc. HCl). Plates were incubated for 1 hr at 25° C., then filtered through 0.5% PEI treated Whatman GF/B filters using a Brandel cell harvester. Filters were washed three times with 3 mL of ice-cold tris wash buffer. Non-specific binding was defined with 10 μM fluoxetine. Amount of radioligand bound in the presence and absence of competitor was analyzed by plotting (−)log drug concentration versus the amount of radioligand specifically bound. The midpoint of the displacement curve (IC50, nM), signifies the potency.

[3] abbreviates: read-out: 5-HT reuptake binding Ki.

SMILES strings stand for the structures. Where two headings read alike, the source gives them in different places.

T1 sequence (P23975 whole entry): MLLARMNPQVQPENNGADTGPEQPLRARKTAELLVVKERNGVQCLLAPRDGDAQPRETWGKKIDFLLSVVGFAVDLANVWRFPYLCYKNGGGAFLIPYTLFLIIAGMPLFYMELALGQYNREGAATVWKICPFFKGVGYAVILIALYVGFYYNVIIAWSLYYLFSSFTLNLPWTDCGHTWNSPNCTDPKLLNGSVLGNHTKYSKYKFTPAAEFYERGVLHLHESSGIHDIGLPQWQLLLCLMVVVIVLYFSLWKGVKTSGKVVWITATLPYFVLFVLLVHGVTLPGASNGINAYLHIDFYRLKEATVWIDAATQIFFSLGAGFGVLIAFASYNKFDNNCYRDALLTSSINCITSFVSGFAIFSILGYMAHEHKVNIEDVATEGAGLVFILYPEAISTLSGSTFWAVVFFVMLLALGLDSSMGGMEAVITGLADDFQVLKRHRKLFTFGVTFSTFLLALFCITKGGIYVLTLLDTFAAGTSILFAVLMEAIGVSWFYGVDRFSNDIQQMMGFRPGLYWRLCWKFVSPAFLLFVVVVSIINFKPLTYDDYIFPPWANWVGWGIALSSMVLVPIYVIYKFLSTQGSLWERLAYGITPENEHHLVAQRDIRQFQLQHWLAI
T2 sequence (P31645 whole entry): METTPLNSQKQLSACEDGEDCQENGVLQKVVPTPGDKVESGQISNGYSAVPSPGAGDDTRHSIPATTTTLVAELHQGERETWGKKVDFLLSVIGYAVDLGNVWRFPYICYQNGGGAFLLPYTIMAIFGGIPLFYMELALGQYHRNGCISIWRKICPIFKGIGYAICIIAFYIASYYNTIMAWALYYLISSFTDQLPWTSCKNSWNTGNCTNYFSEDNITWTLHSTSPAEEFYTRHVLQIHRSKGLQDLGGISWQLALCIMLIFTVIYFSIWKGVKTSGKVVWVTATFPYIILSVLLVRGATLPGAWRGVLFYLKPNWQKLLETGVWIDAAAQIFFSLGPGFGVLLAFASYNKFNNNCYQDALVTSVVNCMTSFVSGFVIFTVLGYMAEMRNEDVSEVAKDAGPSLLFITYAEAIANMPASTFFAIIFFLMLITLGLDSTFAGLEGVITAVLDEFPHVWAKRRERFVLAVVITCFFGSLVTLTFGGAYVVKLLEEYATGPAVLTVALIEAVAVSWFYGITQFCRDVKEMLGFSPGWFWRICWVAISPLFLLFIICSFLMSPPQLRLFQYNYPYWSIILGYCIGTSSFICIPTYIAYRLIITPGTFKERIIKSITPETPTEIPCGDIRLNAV

A word on the Ki: it is the equilibrium dissociation constant of an inhibitor or competing ligand from its target. As to `CC([C@H]1CCCC1c1c[nH]c2ccc(C#N)cc12)N(C)C` (single isomer, unassigned; diastereomer a) [Example 46, (+/−) trans-3-[2-(1-dimethylaminoethyl)cyclopentyl]-1H-indole-5-carbonitrile,diastereomer A], the Ki in assay [1] is greater than 1000 nM; in assay [2] (5-HT reuptake binding Ki), less than 1 nM.

With `N#Cc1c[nH]c2ccc([C@H]3CCC[C@@H]3CN3CCCC3)cc12` (relative stereo) [Example 36, Trans-5-(2-pyrrolidin-1-ylmethyl-cyclopentyl)-1H-indole-3-carbonitrile], the Ki was greater than 1000 nM in assay [1] and 100 to 500 nM in assay [2] (setting [3]).

For the compound `CN(C)C[C@H]1CCC[C@@H]1c1ccc2c(c1)c(C#N)cn2C` (relative stereo) [Example 41, Trans-5-(2-dimethylaminomethyl-cyclopentyl)-1-methyl-1H-indole-3-carbonitrile], the Ki was greater than 1000 nM in assay [1] and 100 to 500 nM in assay [2] (setting [3]).

Turning to `N#Cc1ccc2[nH]cc(CC3CCCC3N3CCCC3)c2c1` (stereo not shown) [Example 59, 3-(2-Pyrrolidin-1-yl-cyclopentylmethyl)-1H-indole-5-carbonitrile], the Ki in assay [2] (setting [3]) was 1 to 10 nM. As to `CNC[C@@H]1CCC[C@@H]1c1ccc2[nH]cc(C#N)c2c1` (relative stereo) [Example 42, Cis-5-(methylaminomethyl-cyclopentyl)-1H-indole-3-carbonitrile], the Ki in assay [1] was in the range of 100 to 500 nM; in assay [2] (setting [3]), 10 to 100 nM. The matching figures for `CN(Cc1ccccc1)C[C@H]1CCC[C@@H]1c1c[nH]c2ccc(C#N)cc12` (relative stereo) [Example 31, Trans-3-{2-[(benzyl-methyl-amino)-methyl]-cyclopentyl}-1H-indole-5-carbonitrile]: greater than 1000 nM and 10 to 100 nM. For the compound `CN(C)C[C@H]1CCC[C@@H]1c1c[nH]c2ccc(I)cc12` [Example 52, (1S,2S)-[2-(5-iodo-1H-indol-3-yl)-cyclopentylmethyl]-dimethylamine], the Ki in assay [2] (setting [3]) fell in the range of 10 to 100 nM. For the compound `CNC[C@H]1CCC[C@@H]1c1c[nH]c2ccc(C#N)cc12` (relative stereo) [Example 26, Trans-3-(2-methylaminomethyl-cyclopentyl)-1H-indole-5-carbonitrile], the Ki in assay [1] was greater than 1000 nM; in assay [2] (setting [3]) it was 1 to 10 nM. With `CNC1CCCC1Cc1c[nH]c2ccc(C#N)cc12` (stereo not shown) [Example 55, 3-(2-Methylamino-cyclopentylmethyl)-1H-indole-5-carbonitrile], the Ki in assay [2] (setting [3]) lay in the range of 1 to 10 nM.

With `CNC[C@H]1CCC[C@@H]1c1ccc2[nH]cc(C#N)c2c1` (relative stereo) [Example 35, Trans-5-(2-methylaminomethyl-cyclopentyl)-1H-indole-3-carbonitrile], the figures for the Ki in assay [1] and in assay [2] (setting [3]) were greater than 1000 nM and 1 to 10 nM, respectively.

`CCC([C@H]1CCC[C@@H]1c1c[nH]c2ccc(C#N)cc12)N(C)C` (mixture of isomers) [Example 51, (+/−) trans-3-[2-(1-dimethylaminopropyl)cyclopentyl]-1H-indole-5-carbonitrile,diastereomer B]: in assay [2] (setting [3]), the Ki fell in the range of 100 to 500 nM. The same measure, in the same setting: the result for `CN(C)C[C@@H]1CCC[C@@H]1c1ccc2[nH]cc(C#N)c2c1` (relative stereo) [Example 43, Cis-5-(dimethylaminomethyl-cyclopentyl)-1H-indole-3-carbonitrile] reads 1 to 10 nM.

`CCNC[C@H]1CCC[C@@H]1c1c[nH]c2ccc(C#N)cc12` (relative stereo) [Example 27, Trans-3-(2-ethylaminomethyl-cyclopentyl)-1H-indole-5-carbonitrile]: the Ki was greater than 1000 nM in assay [1] and 10 to 100 nM in assay [2] (5-HT reuptake binding Ki). Turning to `CCN(C)C[C@H]1CCC[C@@H]1c1c[nH]c2ccc(C#N)cc12` (relative stereo) [Example 29, Trans-3-{2-[(ethyl-methyl-amino)-methyl]-cyclopentyl}-1H-indole-5-carbonitrile], the Ki in assay [1] was greater than 1000 nM; in assay [2] (5-HT reuptake binding Ki), 1 to 10 nM. In the case of `CN(C)C[C@@H]1CCC[C@H]1c1c[nH]c2ccc(C#N)cc12` (single isomer, unassigned; enantiomer a) [Example 44], the figures for the inhibitory constant (Ki) in assay [1] and in assay [2] (5-HT reuptake binding Ki) were greater than 1000 nM and 10 to 100 nM, respectively. On to `CCn1cc([C@H]2CCC[C@@H]2CN(C)C)c2cc(C#N)ccc21` (relative stereo) [Example 33, Trans-3-(2-dimethylaminomethyl-cyclopentyl)-1-ethyl-1H-indole-5-carbonitrile], for which the values for the Ki in assay [1] and in assay [2] (setting [3]) were greater than 1000 nM and 1 to 10 nM, respectively.

Take `CC([C@H]1CCCC1c1c[nH]c2ccc(C#N)cc12)N(C)C` (single isomer, unassigned; diastereomer b) [Example 47, (+/−) trans-3-[2-(1-dimethylaminoethyl)cyclopentyl]-1H-indole-5-carbonitrile,diastereomer B]: the Ki in assay [2] (setting [3]) was 1 to 10 nM. Take `CC([C@H]1CCCC1c1c[nH]c2ccc(C#N)cc12)N(C)C` (single isomer, unassigned) [Example 48]: the Ki in assay [2] (setting [3]) lay in the range of 10 to 100 nM.

On to `CCN(CC)C[C@H]1CCC[C@@H]1c1ccc2[nH]cc(C#N)c2c1` (relative stereo) [Example 39, Trans-5-(diethylaminomethyl-cyclopentyl)-1H-indole-3-carbonitrile], for which the figures for the Ki in assay [1] and in assay [2] (setting [3]) were greater than 1000 nM and 100 to 500 nM, respectively.

Regarding `CCNC1CCCC1Cc1c[nH]c2ccc(C#N)cc12` (stereo not shown) [Example 56, 3-(2-Ethylamino-cyclopentylmethyl)-1H-indole-5-carbonitrile], the Ki in assay [2] (setting [3]) was 1 to 10 nM. As for `CCNC[C@H]1CCC[C@@H]1c1ccc2[nH]cc(C#N)c2c1` (relative stereo) [Example 37, Trans-5-(ethylaminomethyl-cyclopentyl)-1H-indole-3-carbonitrile], the Ki is greater than 1000 nM in assay [1] and 100 to 500 nM in assay [2] (setting [3]). For `CCN(CC)C1CCCC1Cc1c[nH]c2ccc(C#N)cc12` (stereo not shown) [Example 57, 3-(2-Diethylamino-cyclopentylmethyl)-1H-indole-5-carbonitrile], the Ki in assay [2] (setting [3]) lay in the range of 10 to 100 nM. Consider `CN(C)C[C@H]1CCC[C@@H]1c1c[nH]c2ccc(C#N)cc12` (single isomer, unassigned; enantiomerb) [Example 45], for which the Ki in assay [1] was greater than 1000 nM; in assay [2] (5-HT reuptake binding Ki), less than 1 nM. `CN(Cc1ccccc1)C1CCCC1Cc1c[nH]c2ccc(C#N)cc12` (stereo not shown) [Example 60, 3-[2-(Benzyl-methyl-amino)-cyclopentylmethyl]-1H-indole-5-carbonitrile]: the Ki in assay [2] (setting [3]) lay within 10 to 100 nM. For the compound `CCN(C)C[C@H]1CCC[C@@H]1c1ccc2[nH]cc(C#N)c2c1` (relative stereo) [Example 38, Trans-5-{2-[(ethyl-methyl-amino)-methyl]-cyclopentyl}-1H-indole-3-carbonitrile], the Ki is greater than 1000 nM in assay [1] and 100 to 500 nM in assay [2] (setting [3]). On to `CC([C@H]1CCCC1c1c[nH]c2ccc(C#N)cc12)N(C)C` (single isomer, unassigned) [Example 49], for which the Ki in assay [2] (setting [3]) was less than 1 nM.

`CN(C)C1CCCC1Cc1c[nH]c2ccc(C#N)cc12` (mixture of isomers) [Example 54, 3-(2-Dimethylamino-cyclopentylmethyl)-1H-indole-5-carbonitrile]: the Ki in assay [2] (setting [3]) is 1 to 10 nM.

For `CCN(C)C1CCCC1Cc1c[nH]c2ccc(C#N)cc12` (stereo not shown) [Example 58, 3-[2-(Ethyl-methyl-amino)-cyclopentylmethyl]-1H-indole-5-carbonitrile], the Ki in assay [2] (setting [3]) was 1 to 10 nM. In the case of `CN(C)C[C@H]1CCC[C@@H]1c1c[nH]c2ccc(C#N)cc12` (racemic) [Example 25, Trans-3-(2-dimethylaminomethyl-cyclopentyl)-1H-indole-5-carbonitrile], the Ki in assay [1] is greater than 1000 nM; in assay [2] (5-HT reuptake binding Ki), less than 1 nM.

As to `CCC([C@H]1CCC[C@@H]1c1c[nH]c2ccc(C#N)cc12)N(C)C` (mixture of isomers) [Example 50, (+/−) trans-3-[2-(1-dimethylaminopropyl)cyclopentyl]-1H-indole-5-carbonitrile,diastereomer A], in assay [2] (setting [3]), the Ki is 10 to 100 nM.
